We go through ten molecules from patent publication US20060063755A1, “Loxapine analogs and methods of use thereof” (priority 2004, published 2006).

Where “and” joins values, the source holds several entries; their conditions need not be identical. Equal entries are not always repeated.

One data set addresses hERG channel (Homo sapiens, UniProt Q12809). Put plainly: hERG channel current block, whole cell recording in HEK293 cells. The data set is classed as cell-based. To be noted: HEK293 cells expressing hERG. The protocol:
Other in vitro selection criteria for loxapine analogs of the invention includes hERG binding.
(Brown and Rampe (2000)).
In one embodiment of the HERG assay, the positive control (i.e., reference compound) is terfenadine (Sigma, St. Louis Mo.), which has been shown, at a concentration of 60 nM, to block HERG current by approximately 75%. Test compounds are delivered in HEPES-buffered physiological saline (HB-PS)+0.1% dimethyl sulfoxide (DMSO).
Clin. Exp. Allergy 29 Suppl 3, 174-181.
If the final DMSO concentration must be greater than 0.3%, to reach a specified test article concentration, a separate vehicle control test with an n>2 was performed at the highest final DMSO concentration.
Each cell acted as its own control. […] One concentration of the positive control article (60 nM terfenadine) was applied to two cells (n≧2).

Another data set has as its target T1, H1 histamine receptor (Bos taurus, UniProt P30546).
T1 construct: the receptors were obtained from bovine cerebellar membrane tissue; from tissue; host or cells: bovine cerebellar membranes
Briefly: H1 competitive binding assay, [3H]pyrilamine, bovine cerebellar membranes. To be noted: bovine cerebellar membrane.

The next data set addresses alpha 1 receptors. Briefly: Alpha 1 receptor binding assay. The following applies: read-out: Ki Alpha1. The protocol: (§1) Binding assays were performed using the disclosed sleep-inducing agents and derivatives selected from those listed in Table 1 in competitive binding assays with known standards for the H1 histamine receptor, and the M1, M2, and M3 muscarinic receptors, alpha 1 and alpha 2 receptors, and D1 and D2 receptors.

For another data set, the target named is alpha 2 receptors. Put plainly: Alpha 2 receptor binding assay. The following applies: read-out: Ki Alpha2. The protocol: as §1
Another data set addresses Dopamine, D1 (Homo sapiens, UniProt P21728). Put plainly: Dopamine D1 (human recombinant) binding assay. The protocol:
as §1
Dopamine, D1 (human recombinant) binding assay was performed according to published procedures. See, e.g., Jarvie, et al. J. Recept Res., 13(1-4): 573-90 (1993); and Billard, et al. Life Sciences, 35(18): 1885-93 (1984), with modifications

Another data set deals with D2 receptors (Homo sapiens, UniProt P14416). Put plainly: Dopamine D2 binding assay (human). On the procedure: Binding assays were performed using the disclosed sleep-inducing agents and derivatives selected from those listed in Table 1 in competitive binding assays with known standards for the H1 histamine receptor, and the M1, M2, and M3 muscarinic receptors, alpha 1 and alpha 2 receptors, and D1 and D2 receptors. […]

In a further data set the target is T2, M1 muscarinic receptor (Homo sapiens, UniProt P11229).
T2 construct: purchased PerkinElmer, Inc., Wellesley, Mass; host or cells: CHO cells
T2 sequence (P11229 1-460): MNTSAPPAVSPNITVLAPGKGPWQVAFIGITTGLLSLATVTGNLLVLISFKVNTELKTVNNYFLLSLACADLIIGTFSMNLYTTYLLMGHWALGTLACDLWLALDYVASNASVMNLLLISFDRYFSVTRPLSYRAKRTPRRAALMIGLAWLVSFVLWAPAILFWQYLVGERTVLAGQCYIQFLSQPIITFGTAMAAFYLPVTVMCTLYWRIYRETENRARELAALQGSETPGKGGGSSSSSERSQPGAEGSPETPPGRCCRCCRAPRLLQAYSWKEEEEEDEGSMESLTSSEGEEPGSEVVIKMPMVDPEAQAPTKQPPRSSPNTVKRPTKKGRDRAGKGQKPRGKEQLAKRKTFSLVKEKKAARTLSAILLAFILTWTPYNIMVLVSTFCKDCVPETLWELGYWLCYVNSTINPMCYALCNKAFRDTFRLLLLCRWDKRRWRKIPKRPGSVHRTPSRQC
Put plainly: M1 binding assay, [3H]-scopolamine N-methyl chloride, CHO cells. The following applies: human recombinant.

A further data set concerns the target T3, M3 muscarinic receptor (Homo sapiens, UniProt P20309).
T3 construct: purchased PerkinElmer, Inc., Wellesley, Mass; host or cells: CHO cells
Briefly: M3 binding assay, [3H]-scopolamine N-methyl chloride, CHO cells. To be noted: human recombinant.

Chain of D2 receptors (P14416 whole entry): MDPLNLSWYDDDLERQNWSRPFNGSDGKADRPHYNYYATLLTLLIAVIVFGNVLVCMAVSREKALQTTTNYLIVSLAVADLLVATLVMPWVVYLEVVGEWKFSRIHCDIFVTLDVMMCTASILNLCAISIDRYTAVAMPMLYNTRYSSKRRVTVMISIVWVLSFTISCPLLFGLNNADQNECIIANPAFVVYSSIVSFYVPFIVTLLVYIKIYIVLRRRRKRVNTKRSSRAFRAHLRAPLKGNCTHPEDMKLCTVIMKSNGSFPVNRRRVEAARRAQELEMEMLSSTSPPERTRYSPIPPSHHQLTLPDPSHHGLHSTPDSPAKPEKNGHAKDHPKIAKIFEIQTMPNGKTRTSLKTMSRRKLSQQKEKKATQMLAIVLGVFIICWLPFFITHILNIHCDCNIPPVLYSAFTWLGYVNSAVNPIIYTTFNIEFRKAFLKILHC
Chain of Dopamine, D1 (P21728 whole entry): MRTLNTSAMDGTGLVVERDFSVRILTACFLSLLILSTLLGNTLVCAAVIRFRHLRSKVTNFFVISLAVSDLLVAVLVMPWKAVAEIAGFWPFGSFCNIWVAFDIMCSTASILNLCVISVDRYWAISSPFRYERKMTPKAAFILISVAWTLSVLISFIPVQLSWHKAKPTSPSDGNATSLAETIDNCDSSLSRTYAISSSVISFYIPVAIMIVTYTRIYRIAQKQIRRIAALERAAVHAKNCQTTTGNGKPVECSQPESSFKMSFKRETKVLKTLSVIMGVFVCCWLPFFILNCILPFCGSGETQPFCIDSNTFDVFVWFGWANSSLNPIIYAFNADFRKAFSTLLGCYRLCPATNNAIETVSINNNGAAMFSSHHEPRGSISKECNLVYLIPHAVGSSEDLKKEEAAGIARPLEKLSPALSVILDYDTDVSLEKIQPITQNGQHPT
T1 sequence (P30546 whole entry): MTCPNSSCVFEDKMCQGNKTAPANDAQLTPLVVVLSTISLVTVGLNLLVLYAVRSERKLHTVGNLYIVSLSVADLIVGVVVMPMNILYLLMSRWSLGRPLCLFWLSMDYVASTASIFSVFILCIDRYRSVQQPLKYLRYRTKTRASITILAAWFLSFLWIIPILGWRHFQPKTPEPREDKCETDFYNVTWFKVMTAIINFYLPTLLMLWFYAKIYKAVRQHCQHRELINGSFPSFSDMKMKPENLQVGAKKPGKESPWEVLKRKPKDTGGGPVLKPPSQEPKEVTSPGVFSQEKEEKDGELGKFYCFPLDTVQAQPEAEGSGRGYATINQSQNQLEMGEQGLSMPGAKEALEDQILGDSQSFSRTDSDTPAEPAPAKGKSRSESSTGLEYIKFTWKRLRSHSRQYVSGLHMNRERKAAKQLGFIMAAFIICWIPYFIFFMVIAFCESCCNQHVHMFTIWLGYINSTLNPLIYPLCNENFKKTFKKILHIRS
T3 sequence (P20309 whole entry): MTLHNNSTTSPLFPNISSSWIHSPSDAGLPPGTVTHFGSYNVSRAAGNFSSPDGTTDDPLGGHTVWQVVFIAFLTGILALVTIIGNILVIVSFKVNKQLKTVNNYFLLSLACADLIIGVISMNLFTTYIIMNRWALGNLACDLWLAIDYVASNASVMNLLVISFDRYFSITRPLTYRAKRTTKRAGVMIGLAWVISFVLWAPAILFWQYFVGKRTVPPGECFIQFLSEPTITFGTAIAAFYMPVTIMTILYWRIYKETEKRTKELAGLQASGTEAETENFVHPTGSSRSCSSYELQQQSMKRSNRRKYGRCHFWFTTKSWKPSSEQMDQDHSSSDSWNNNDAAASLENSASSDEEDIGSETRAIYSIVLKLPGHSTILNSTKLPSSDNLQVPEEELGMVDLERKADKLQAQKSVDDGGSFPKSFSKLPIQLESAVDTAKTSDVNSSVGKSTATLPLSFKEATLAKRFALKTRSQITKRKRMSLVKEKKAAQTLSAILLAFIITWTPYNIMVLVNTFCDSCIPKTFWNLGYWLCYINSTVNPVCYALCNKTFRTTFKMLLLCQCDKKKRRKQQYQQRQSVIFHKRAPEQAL
Chain of hERG channel (Q12809 whole entry): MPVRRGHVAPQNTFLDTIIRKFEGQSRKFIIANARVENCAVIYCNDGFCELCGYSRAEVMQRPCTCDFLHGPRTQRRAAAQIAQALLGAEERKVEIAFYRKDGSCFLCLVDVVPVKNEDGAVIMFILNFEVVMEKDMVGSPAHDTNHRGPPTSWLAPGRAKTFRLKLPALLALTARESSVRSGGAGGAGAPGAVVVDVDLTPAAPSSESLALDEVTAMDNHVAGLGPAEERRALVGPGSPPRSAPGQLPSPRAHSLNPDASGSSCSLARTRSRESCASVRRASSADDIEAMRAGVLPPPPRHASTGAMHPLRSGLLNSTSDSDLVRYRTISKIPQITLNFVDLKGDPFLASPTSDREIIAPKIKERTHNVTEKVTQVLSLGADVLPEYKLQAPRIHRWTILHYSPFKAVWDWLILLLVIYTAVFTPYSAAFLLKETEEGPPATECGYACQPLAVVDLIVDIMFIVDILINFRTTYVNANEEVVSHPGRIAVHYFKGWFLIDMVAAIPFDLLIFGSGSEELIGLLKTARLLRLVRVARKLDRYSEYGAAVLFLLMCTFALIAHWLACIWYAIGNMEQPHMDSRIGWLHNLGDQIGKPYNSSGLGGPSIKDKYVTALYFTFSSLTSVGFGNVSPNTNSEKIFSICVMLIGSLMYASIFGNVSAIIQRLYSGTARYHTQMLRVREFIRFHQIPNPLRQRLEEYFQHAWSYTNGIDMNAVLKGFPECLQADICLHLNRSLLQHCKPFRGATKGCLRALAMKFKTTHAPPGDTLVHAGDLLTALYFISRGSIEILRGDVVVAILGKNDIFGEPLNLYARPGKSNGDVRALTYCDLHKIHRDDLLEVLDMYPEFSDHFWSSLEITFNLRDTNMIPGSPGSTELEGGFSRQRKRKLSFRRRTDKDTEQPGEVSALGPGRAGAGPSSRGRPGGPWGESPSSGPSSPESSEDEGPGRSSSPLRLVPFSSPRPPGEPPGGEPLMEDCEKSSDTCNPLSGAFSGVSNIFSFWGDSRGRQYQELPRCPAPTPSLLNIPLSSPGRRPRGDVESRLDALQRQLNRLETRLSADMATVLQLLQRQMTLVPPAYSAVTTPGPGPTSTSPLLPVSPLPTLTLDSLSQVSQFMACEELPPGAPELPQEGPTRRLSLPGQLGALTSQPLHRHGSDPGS

Take `CC(C)(CCN1CCN(C2=Nc3ccccc3Oc3ccc(Cl)cc32)CC1)C(=O)O` [Compound 6]: the “hERG at 10 micromolar (% blocking of the hERG channel)” value on hERG channel was found to be 27%. In addition, the Ki is 0.0138 µM on H1 histamine receptor; 2.73 µM on alpha 1 receptors; greater than 10 µM at alpha 2 receptors; 7.17 µM on Dopamine, D1; 0.0961 µM on D2 receptors.
Take `Cc1ccc2c(c1)Oc1ccc(C)cc1C(N1CCN(CC(C)(C)C(=O)O)CC1)=N2` [Compound 31]: on hERG channel, the “hERG at 10 micromolar (% blocking of the hERG channel)” value is 3.80%. In addition, the Ki on H1 histamine receptor is 0.239 µM and 0.337 µM and 0.244 µM; on M1 muscarinic receptor, greater than 10 µM; on M3 muscarinic receptor, greater than 10 µM; on alpha 1 receptors, greater than 10 µM; at alpha 2 receptors, greater than 10 µM; on Dopamine, D1, 0.873 µM. On D2 receptors, affinity was put at a Ki of 2.2 µM.
On to `COc1ccc2c(c1)Oc1ccc(OC)cc1C(N1CCN(CC(C)(C)C(=O)O)CC1)=N2` [Compound 35], for which the “hERG at 10 micromolar (% blocking of the hERG channel)” value on hERG channel amounted to 0.10%. Besides, the Ki at M1 muscarinic receptor is greater than 10 µM; at M3 muscarinic receptor it was greater than 10 µM; at alpha 1 receptors it was greater than 10 µM; at alpha 2 receptors, greater than 10 µM; on Dopamine, D1, greater than 10 µM; at D2 receptors, greater than 10 µM.
For `COc1ccc2c(c1)N=C(N1CCN(CC(C)(C)C(=O)O)CC1)c1ccc(OC)cc1O2` [Compound 42], at hERG channel, the “hERG at 10 micromolar (% blocking of the hERG channel)” value worked out at 5.80%. For the same molecule, the Ki is 1.12 µM on H1 histamine receptor; greater than 10 µM on M1 muscarinic receptor; greater than 10 µM on M3 muscarinic receptor; greater than 10 µM at alpha 1 receptors; greater than 10 µM on alpha 2 receptors; greater than 10 µM on Dopamine, D1. The molecule also registered a Ki at D2 receptors greater than 10 µM.
`Cc1ccc2c(c1)Oc1ccc(Br)cc1N=C2N1CCN(CC(C)(C)C(=O)O)CC1` [Compound 44]: the “hERG at 10 micromolar (% blocking of the hERG channel)” value at hERG channel was determined as 65.90%. The Ki is 0.0414 µM at H1 histamine receptor; greater than 10 µM at M1 muscarinic receptor; greater than 10 µM on M3 muscarinic receptor; greater than 10 µM at alpha 1 receptors; greater than 10 µM at alpha 2 receptors.
For the molecule `Cc1ccc2c(c1)Oc1ccccc1N=C2N1CCN(CC(C)(C)C(=O)O)CC1` [Compound 46], at hERG channel, the “hERG at 10 micromolar (% blocking of the hERG channel)” value was determined as 20.40%. In addition, the Ki on H1 histamine receptor was 0.0188 µM; on M1 muscarinic receptor, greater than 10 µM; at M3 muscarinic receptor it was greater than 10 µM; on alpha 1 receptors, greater than 10 µM; at alpha 2 receptors it was greater than 10 µM; at Dopamine, D1 it was greater than 10 µM. At D2 receptors, the Ki is greater than 10 µM.
As to `COc1ccc2c(c1)C(N1CCN(CC(C)(C)C(=O)O)CC1)=Nc1cc(F)ccc1O2` [Compound 48], the inhibition constant (Ki) is 0.0271 µM on H1 histamine receptor, greater than 10 µM at M1 muscarinic receptor, greater than 10 µM on M3 muscarinic receptor and greater than 10 µM on alpha 1 receptors.
Take `COc1ccc2c(c1)N=C(N1CCN(CC(C)(C)C(=O)O)CC1)c1cc(C)ccc1O2` [Compound 56]: the “hERG at 10 micromolar (% blocking of the hERG channel)” value on hERG channel amounted to 0.30%. In addition, the inhibitory constant (Ki) on H1 histamine receptor is 0.117 µM; at M1 muscarinic receptor it was greater than 10 µM; at M3 muscarinic receptor it was greater than 10 µM; at alpha 1 receptors, greater than 10 µM; on alpha 2 receptors, greater than 10 µM; on Dopamine, D1, greater than 10 µM. Also, the inhibitory constant (Ki) on D2 receptors was greater than 10 µM.
With `COc1ccc2c(c1)C(N1CCN(CC(C)(C)C(=O)O)CC1)=Nc1ccc(Br)cc1O2` [Compound 72], the “hERG at 10 micromolar (% blocking of the hERG channel)” value on hERG channel was found to be 10.90%. The Ki on M1 muscarinic receptor is greater than 10 µM; at M3 muscarinic receptor, greater than 10 µM; at alpha 1 receptors, greater than 10 µM; at Dopamine, D1 it was 0.514 µM; on D2 receptors it was 0.47 µM.
Consider `COc1ccc2c(c1)Oc1ccc(Br)cc1N=C2N1CCN(CC(C)(C)C(=O)O)CC1` [Compound 86], for which the “hERG at 10 micromolar (% blocking of the hERG channel)” value at hERG channel amounted to 86.90%.
